Results taken from article PMC3491841 (EMBO Molecular Medicine, 2012).

Legend:
Assay type in all cases: binding
[1] = target: T1, LdTOP1L (large subunit of L. donovani topoisomerase IB) (Leishmania donovani, UniProt A0A3Q8IHS4); assay: intrinsic tryptophan fluorescence quenching
T1 sequence (A0A3Q8IHS4 1-635): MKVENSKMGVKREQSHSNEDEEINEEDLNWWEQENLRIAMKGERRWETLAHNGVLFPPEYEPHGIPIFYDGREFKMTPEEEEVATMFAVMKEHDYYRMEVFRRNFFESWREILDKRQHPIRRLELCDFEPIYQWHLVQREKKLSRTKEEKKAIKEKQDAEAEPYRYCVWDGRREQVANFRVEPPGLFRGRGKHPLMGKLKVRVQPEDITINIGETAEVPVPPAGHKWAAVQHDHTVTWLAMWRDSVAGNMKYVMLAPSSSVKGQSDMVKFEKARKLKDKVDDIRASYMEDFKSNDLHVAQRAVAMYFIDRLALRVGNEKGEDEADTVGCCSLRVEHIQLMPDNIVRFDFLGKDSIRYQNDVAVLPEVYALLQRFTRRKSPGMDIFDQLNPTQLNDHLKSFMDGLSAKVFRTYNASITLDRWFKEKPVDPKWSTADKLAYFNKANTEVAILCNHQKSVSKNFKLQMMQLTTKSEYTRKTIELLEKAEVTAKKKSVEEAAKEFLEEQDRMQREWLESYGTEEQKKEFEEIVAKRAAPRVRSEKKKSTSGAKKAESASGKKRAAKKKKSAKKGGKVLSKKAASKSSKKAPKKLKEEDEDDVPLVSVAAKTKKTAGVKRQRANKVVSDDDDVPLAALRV

[2] = target: T2, LdTOP1LS (reconstituted heterodimeric topoisomerase IB) (Leishmania donovani, UniProt A0A3Q8IHS4+Q8WQM6); assay: tryptophan fluorescence quenching
T2 sequence (A0A3Q8IHS4 1-635): T1 sequence (A0A3Q8IHS4 1-635)
T2 sequence (Q8WQM6 1-262): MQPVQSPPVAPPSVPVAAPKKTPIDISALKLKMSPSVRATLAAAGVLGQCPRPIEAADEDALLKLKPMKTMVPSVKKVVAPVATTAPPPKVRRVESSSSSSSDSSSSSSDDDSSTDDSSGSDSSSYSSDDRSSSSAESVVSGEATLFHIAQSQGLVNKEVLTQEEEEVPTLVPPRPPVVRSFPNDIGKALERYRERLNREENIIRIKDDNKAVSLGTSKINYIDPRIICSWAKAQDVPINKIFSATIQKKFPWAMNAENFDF

[3] = target: T3, LdTOP1S (small subunit of L. donovani topoisomerase IB) (Leishmania donovani, UniProt Q8WQM6); assay: intrinsic tryptophan fluorescence quenching
T3 sequence (Q8WQM6 1-262): T2 sequence (Q8WQM6 1-262)

## COC[C@@H](Cc1ccc(OC)c(OC)c1)[C@@H](COC)Cc1cc(OC)c2c(c1)OCO2 [niranthin]
[1]
  Kd: 372 ± 260 nM
[2]
  Kd: 299 ± 160 nM
[3]
  Kd: 169 ± 120 nM
